Laboratory results published in US20230321089A1, “COMBINATION OF CABOTEGRAVIR AND LEVONORGESTREL” (ViiV Healthcare Company, priority 2020, published 2023).

Columns and labels:
HIV-1 strains = conditions: broad range of HIV-1 strains; cited from earlier work
[1] = set-up: species or system male Sprague Dawley rats; conditions: rat, in vivo
Experimental: To prepare the combination product, LNG and LNG-b suspensions were added to Cabotegravir suspensions at 500 mg/mL to achieve a final Cabotegravir concentration of approximately 200 mg/mL and a final LNG and LNGb concentration of […], using a solution of 2.0% Mannitol in water to adjust the final concentrations to target. Concentrations of P338 and PEG3350 were at 4.5%. The resulting suspensions were flushed with nitrogen, stoppered (FM457 stopper), and sealed. The suspensions were terminally sterilized by gamma irradiation at a minimum dose of 25 kGy.
The pharmacokinetics of co-suspensions of Cabotegravir and LNG/LNG-b, prepared as described above, were evaluated in male Sprague Dawley rats. The formulations that were tested included: • i. 200 mg/mL Cabotegravir and 40 mg/mL LNG—0.2 microns • ii. 200 mg/mL Cabotegravir 40 mg/mL LNG—1 micron • iii. 200 mg/mL Cabotegravir and 40 mg/mL LNGb—0.2 microns • iv. 200 mg/mL Cabotegravir 40 mg/mL LNGb—1 micron
Rats were administered co-suspensions either intramuscularly or subcutaneously at target doses of 10 mg/kg Cabotegravir and […] LNG or LNGb. […] FIG. 2 is a comparison of Levonorgestrel blood concentration pharmacokinetic profiles after intramuscular vs. subcutaneous administration. The average particle size of LNG for these formulations was 0.2 microns in diameter. […] Furthermore, FIG. 3 is a comparison of LNG and LNG-b co-formulated with Cab.

For C[C@H]1CO[C@@H]2Cn3cc(C(=O)NCc4ccc(F)cc4F)c(=O)c(O)c3C(=O)N12 [Cabotegravir, N-((2,4-Difluorophenyl)methyl)-6-hydroxy-3-methyl-5,7-dioxo-2,3,5,7,11,11a hexahydro(1,3)oxazolo(3,2-a)pyrido(1,2-d)pyrazine-8-carboxamide], the potency (HIV-1 strains) is given as “subnanomolar”.

For C#C[C@]1(O)CC[C@H]2[C@@H]3CCC4=CC(=O)CC[C@@H]4[C@H]3CC[C@@]21CC [LNG, Levonorgestrel], the “Levonorgestrel blood concentration pharmacokinetic profile: intramuscular vs. subcutaneous administration” value [1] was “does not appear to be a significant impact”.

With C#C[C@]1(OC(=O)CCC)CC[C@H]2[C@@H]3CCC4=CC(=O)CC[C@@H]4[C@H]3CC[C@@]21CC [LNGb, Levonorgestrel-butanoate] the “Cmax compared with LNG” value ([1]; sc) was “lower” and the “apparent half-life compared with LNG” value ([1]; sc) was “slightly longer”.
